pIC50: −log10 of the molar value.
Target: recombinant human Myt1 (Homo sapiens (Human), UniProt Q99640)
Experiment: Myt1 enzymatic assay (ADP-Glo kinase assay)
Assay type: biochemical
Conditions: 18 nM enzyme, 10 uM ATP
Description: Detection of Myt1 kinase activity utilized a recombinant human Myt1 kinase assay measuring the hydrolysis of ATP using a commercially available ADP-Glo Assay (ADP-Glo™ Kinase Assay from Promega, 10 000 assays, #V9102). […] After this, 5 μL of compounds (diluted in reaction buffer to 0.5% DMSO) was added to the microplate and the plate was spun briefly and incubated at 22° C. for 15 minutes. Ultra-Pure Adenosine Triphosphate (ATP) solution (ADP-Glo kit from Promega) was diluted in reaction buffer and 5 μL was added to the microplate, spun down briefly and incubated for 60 minutes at 30° C. […] After the 60-minute incubation, 15 µL of ADP-Glo reagent was added and the plate was spun briefly and sealed and incubated in the dark for 40 minutes at 22° C. […] Luminescence was read using the Envision (250 ms integration). The IC50 and the % max inhibition were calculated for each inhibitor compound tested.

Chain of recombinant human Myt1 (Q99640 whole entry): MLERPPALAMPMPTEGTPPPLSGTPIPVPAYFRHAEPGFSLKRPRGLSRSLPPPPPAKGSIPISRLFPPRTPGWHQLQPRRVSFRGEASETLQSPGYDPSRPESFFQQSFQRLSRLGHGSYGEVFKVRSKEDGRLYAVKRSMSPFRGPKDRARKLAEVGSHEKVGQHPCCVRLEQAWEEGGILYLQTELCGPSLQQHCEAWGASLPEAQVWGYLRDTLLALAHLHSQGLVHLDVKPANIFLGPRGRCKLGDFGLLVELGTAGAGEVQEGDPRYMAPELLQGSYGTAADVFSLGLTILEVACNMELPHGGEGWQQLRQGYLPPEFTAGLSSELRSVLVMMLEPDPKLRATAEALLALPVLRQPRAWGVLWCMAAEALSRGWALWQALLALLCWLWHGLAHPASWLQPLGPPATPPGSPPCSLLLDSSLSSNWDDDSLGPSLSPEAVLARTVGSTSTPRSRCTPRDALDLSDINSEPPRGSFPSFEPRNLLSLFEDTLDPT

| pIC50 | SMILES |
| --- | --- |
| 7.30 | NC(=O)c1c(N)n(-c2cccc3[nH]ncc23)c2ncc(Cl)cc12 [Compound 334, 2-amino-5-chloro-1-(1H-indazol-4-yl)pyrrolo[2,3-b]pyridine-3-carboxamide] |
| 7.40 | Cc1ccc2[nH]ncc2c1-n1c(N)c(C(N)=O)c2cc(Cl)cnc21 [Compound 335] |
| 7.42 | Cc1cc2c(C(N)=O)c(N)c(-c3c(C)ccc(O)c3C)n2cc1C [Compound 336, 2-amino-3-(3-hydroxy-2,6-dimethylphenyl)-6,7-dimethylindolizine-1-carboxamide] |
| > 8.00 | Cc1cn2c(C(N)=O)c(N)c(-c3c(C)ccc(O)c3C)c2nc1C [Compound 337, 7-amino-8-(3-hydroxy-2,6-dimethylphenyl)-2,3-dimethylpyrrolo[1,2-a]pyrimidine-6-carboxamide] |
| 6.97 | Cc1cc2c(-c3c(C)ccc(O)c3C)c(N)c(C(N)=O)n2cc1C [Compound 338, 2-amino-1-(3-hydroxy-2,6-dimethylphenyl)-6,7-dimethylindolizine-3-carboxamide] |
| 6.49 | Cc1ccc(O)cc1-c1cn(C(N)=O)c2cc(Cl)cnc12 [Compound 345, 6-chloro-3-(5-hydroxy-2-methyl-phenyl) pyrrolo[3,2-b]pyridine-1-carboxamide] |
| 6.63 | Cc1ccc(O)c(C)c1-n1cc(C(N)=O)c2cc(Cl)ccc21 [Compound 346, 5-chloro-1-(3-hydroxy-2,6-dimethylphenyl)-1H-indole-3-carboxamide] |

Reference: patent publication US12435090B2, “Compounds, pharmaceutical compositions, and methods of preparing compounds and of their use” (Repare Therapeutics Inc., priority 2021, dated 2025)
